Source: PMC5837865 (Clinical cancer research : an official journal of the …, 2017)
In brackets after ≈: the same amount, converted by molar mass. Like-named read-outs stand apart in the source and are kept apart here.

Legend:
[1] = biological target: CYP2C9 (Homo sapiens, UniProt P11712); assay: Cytochrome P450 inhibition; type: biochemical; details: read-out: IC50 CYP2C9
[2] = type: in vivo, BALB/c mice
[3] = system: PC-3 cells; assay: Clonogenic; type: cell-based, human; details: 2 mg/ml, PC-3, pH 7.4
[4] = Stability in simulated intestinal fluid; type: in vitro ADME; details: 10 µM
[5] = biological target: CYP2C8 (Homo sapiens, UniProt P10632); assay: Cytochrome P450 inhibition; type: biochemical; details: read-out: IC50 CYP2C8
CYP2C8, sequence (P10632 whole entry): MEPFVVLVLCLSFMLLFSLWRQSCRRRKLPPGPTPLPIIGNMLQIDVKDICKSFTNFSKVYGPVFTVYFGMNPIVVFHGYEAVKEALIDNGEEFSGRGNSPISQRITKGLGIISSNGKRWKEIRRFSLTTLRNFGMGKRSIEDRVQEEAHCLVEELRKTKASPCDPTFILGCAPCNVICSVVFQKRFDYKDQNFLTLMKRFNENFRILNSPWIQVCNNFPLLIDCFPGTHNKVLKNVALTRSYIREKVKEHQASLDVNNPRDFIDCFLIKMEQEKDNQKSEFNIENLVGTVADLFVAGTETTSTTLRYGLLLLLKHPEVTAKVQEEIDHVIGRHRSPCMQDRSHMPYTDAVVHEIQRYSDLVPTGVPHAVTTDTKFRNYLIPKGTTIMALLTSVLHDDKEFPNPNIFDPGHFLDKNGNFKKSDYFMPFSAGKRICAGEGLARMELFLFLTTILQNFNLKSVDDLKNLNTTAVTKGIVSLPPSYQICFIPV

[6] = biological target: CYP2A6 (Homo sapiens, UniProt P11509); assay: Cytochrome P450 inhibition; type: biochemical; details: read-out: IC50 CYP2A6
CYP2A6, sequence (P11509 whole entry): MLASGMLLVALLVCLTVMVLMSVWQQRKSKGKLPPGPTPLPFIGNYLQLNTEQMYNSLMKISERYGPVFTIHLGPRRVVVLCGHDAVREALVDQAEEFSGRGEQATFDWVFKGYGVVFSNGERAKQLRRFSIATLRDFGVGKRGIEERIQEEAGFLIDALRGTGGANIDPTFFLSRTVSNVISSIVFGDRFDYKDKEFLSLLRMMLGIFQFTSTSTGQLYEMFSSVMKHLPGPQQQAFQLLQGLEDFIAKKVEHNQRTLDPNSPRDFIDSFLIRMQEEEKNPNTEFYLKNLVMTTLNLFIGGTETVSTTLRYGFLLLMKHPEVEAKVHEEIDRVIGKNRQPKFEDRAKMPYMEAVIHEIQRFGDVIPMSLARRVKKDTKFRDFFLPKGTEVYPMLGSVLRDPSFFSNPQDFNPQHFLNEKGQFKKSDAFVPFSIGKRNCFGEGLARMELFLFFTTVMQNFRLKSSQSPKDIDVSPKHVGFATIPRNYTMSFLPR

[7] = biological target: CYP1A2 (Homo sapiens, UniProt P05177); assay: Cytochrome P450 inhibition; type: biochemical
CYP1A2, sequence (P05177 whole entry): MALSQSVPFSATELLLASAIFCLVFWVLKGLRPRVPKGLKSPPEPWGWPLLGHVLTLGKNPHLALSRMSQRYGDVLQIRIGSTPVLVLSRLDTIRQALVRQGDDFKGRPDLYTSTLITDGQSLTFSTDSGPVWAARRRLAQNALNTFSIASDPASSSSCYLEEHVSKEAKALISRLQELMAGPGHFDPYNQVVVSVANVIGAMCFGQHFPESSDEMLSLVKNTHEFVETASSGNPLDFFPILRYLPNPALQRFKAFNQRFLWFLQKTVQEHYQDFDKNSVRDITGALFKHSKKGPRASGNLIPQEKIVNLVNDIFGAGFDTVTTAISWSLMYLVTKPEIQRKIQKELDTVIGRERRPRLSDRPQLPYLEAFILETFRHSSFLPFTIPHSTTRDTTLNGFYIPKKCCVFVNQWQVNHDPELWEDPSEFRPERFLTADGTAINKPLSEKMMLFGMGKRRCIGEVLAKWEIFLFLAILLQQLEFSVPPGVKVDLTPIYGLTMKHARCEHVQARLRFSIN

[8] = biological target: CYP2D6 (Homo sapiens, UniProt P10635); assay: Cytochrome P450 inhibition; type: biochemical; details: read-out: IC50 CYP2D6
CYP2D6, sequence (P10635 whole entry): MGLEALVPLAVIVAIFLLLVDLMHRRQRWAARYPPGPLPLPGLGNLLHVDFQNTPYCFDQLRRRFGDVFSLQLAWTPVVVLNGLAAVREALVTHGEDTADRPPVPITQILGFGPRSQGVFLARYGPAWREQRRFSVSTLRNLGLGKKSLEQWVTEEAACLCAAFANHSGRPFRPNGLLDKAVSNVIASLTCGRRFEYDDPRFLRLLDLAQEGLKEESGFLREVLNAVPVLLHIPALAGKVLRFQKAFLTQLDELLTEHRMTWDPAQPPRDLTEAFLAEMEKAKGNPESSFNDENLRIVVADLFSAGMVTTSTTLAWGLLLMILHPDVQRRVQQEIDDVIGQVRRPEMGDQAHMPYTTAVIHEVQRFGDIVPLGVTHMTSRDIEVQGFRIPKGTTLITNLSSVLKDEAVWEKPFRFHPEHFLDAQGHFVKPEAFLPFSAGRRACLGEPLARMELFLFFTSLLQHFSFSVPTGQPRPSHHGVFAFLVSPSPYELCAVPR

[9] = type: in vivo, BALB/c mice; details: for Cmax / time to reach peak plasma concentration: plasma, label = analyte measured
[10] = system: cancer cells of varying tissue-origin; assay: Proliferation and colony formation, cancer cells of varying tissue-origin; type: cell-based
[11] = biological target: CYP2B6 (Homo sapiens, UniProt P20813); assay: Cytochrome P450 inhibition; type: biochemical; details: read-out: IC50 CYP2B6
CYP2B6, sequence (P20813 whole entry): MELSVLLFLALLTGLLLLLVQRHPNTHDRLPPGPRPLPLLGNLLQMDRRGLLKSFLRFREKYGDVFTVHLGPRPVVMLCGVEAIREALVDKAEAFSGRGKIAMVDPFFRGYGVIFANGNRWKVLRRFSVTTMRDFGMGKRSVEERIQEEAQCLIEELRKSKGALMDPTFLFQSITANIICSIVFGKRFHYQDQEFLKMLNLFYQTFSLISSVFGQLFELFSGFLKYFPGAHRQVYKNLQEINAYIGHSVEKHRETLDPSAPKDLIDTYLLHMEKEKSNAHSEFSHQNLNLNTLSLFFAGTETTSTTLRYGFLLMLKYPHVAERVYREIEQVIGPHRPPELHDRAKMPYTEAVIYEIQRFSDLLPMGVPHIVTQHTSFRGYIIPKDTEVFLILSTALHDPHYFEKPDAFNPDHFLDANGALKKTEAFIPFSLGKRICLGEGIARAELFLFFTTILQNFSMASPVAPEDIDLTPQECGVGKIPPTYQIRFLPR

[12] = biological target: CYP3A4 (Homo sapiens, UniProt P08684); assay: Cytochrome P450 inhibition; type: biochemical; details: read-out: IC50 CYP3A4
CYP3A4, sequence (P08684 whole entry): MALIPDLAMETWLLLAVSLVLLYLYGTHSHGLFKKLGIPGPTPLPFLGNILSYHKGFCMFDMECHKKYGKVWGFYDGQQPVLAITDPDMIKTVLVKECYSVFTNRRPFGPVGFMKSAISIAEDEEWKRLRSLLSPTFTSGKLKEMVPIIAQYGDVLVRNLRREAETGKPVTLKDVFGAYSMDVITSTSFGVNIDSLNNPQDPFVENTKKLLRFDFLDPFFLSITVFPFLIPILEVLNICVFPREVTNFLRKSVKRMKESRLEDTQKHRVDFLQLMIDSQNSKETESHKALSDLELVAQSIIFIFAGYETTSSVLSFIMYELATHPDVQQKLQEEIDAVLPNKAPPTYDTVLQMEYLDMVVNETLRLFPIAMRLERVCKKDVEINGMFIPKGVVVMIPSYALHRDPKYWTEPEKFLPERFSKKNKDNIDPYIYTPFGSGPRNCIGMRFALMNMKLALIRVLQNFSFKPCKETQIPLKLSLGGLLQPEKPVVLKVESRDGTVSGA

[13] = biological target: CYP2E1 (Homo sapiens, UniProt P05181); assay: Cytochrome P450 inhibition; type: biochemical; details: read-out: IC50 CYP2E1
CYP2E1, sequence (P05181 whole entry): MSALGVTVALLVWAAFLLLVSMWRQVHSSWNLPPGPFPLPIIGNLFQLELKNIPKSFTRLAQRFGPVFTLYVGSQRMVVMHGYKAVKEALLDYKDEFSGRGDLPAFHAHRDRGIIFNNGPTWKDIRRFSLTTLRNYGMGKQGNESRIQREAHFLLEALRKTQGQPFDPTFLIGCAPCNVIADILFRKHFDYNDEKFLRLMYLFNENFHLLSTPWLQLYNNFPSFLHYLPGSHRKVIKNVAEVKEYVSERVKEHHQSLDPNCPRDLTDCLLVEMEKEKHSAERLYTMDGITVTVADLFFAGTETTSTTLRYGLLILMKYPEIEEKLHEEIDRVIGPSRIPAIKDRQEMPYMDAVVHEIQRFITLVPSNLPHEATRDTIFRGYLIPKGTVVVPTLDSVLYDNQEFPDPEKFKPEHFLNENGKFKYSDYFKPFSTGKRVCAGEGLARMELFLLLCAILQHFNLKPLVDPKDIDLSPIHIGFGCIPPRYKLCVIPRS

[14] = system: PC-3 cells; assay: Intracellular levels of PhosE and Etn by LC-MS/MS; type: cell-based, human; details: PC-3, 1 mg/ml treatment, 48h, pH 7.4
[15] = Stability in simulated gastric fluid; type: in vitro ADME; details: 10 µM, SGF pH 1.2, over 1h, LC-MS/MS
[16] = Blood to plasma concentration ratio; type: in vitro ADME; details: BALB/c mice blood
[17] = biological target: CYP2C19 (Homo sapiens, UniProt P33261); assay: Cytochrome P450 inhibition; type: biochemical; details: read-out: IC50 CYP2C19
CYP2C19, sequence (P33261 whole entry): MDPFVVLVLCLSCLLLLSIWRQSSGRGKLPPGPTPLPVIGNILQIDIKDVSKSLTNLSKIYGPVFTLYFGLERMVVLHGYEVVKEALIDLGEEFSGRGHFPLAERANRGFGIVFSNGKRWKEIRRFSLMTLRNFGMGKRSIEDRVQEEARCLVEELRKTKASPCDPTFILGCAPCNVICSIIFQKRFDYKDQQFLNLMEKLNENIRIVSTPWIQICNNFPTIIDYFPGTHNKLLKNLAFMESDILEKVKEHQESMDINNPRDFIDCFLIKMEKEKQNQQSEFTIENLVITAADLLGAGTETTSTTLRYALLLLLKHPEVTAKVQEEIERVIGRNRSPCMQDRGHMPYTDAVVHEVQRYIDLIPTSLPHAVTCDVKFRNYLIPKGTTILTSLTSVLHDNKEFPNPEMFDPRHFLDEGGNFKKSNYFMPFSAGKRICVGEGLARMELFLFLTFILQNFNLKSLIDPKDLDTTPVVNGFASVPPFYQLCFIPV

[18] = system: PC-3 cells; assay: Intracellular glucose and glutamine levels in cultured cells; type: cell-based, human; details: PC-3, 2 mg/ml, 48h
[19] = system: HIF1-α; assay: HIF1-α protein expression in tumors; type: in vivo, athymic male BALB/c mice; details: PC-3-luc xenografts, Etn-treated
[20] = Acute oral toxicity; type: in vivo, Sprague-Dawley (SD) rats
[21] = system: DU145 xenografts; assay: DU145 prostate cancer xenograft tumor growth; type: in vivo, athymic male BALB/c mice
[22] = system: MDA-MB-468; assay: MTT cell proliferation assay; type: cell-based; details: MDA-MB-468 (breast)
[23] = system: PC-3-luc tumors; assay: Glucose and glutamine levels in tumors by LC-MS/MS; type: in vivo, athymic male BALB/c mice; details: 40 mg/kg Etn-treated PC-3-luc tumors
[24] = system: PC-3 cells; assay: MTT cell proliferation assay; type: cell-based, human; details: pH 7.4
[25] = system: CK KD PC-3 cells; assay: MTT cell survival in choline kinase knockdown cells; type: cell-based, human; details: 0.5 mg/ml, CK KD (siRNA) PC-3 cells, 48h
[26] = system: p53 transcript; assay: RT-PCR transcript levels; type: cell-based, human; details: PC-3, 2 mg/ml, 48h
[27] = system: PC-3, DU145 and C42B cells; assay: MTT cell survival, prostate cancer lines; type: cell-based, human; details: 0.5 mg/ml, 48h, pH 7.4; range over PC-3, DU145 and C42B
[28] = system: HCT116 xenograft; assay: HCT116 colon cancer xenograft tumor growth; type: in vivo, mice; details: 2 weeks
[29] = Etn absorption from formulations of different pH/acid; type: in vivo; details: pH 5/7.4; H3PO4/HCl/H2SO4
[30] = system: PC-3-luc xenografts; assay: PC-3-luc prostate cancer xenograft tumor growth; type: in vivo, athymic male BALB/c mice
[31] = system: OVCAR-3; assay: MTT cell proliferation assay; type: cell-based; details: OVCAR-3 (ovary)
[32] = system: HIF1-α transcripts; assay: RT-PCR transcript levels; type: cell-based, human; details: PC-3, 2 mg/ml, 48h
[33] = system: CFPAC; assay: MTT cell proliferation assay; type: cell-based; details: CFPAC (pancreas)
[34] = system: Ki67; assay: Ki67 immunohistochemistry of tumor sections; type: in vivo, athymic male BALB/c mice; details: PC-3-luc xenografts, 40 mg/kg; control tumors ~62%
[35] = system: PC-3 cells; assay: Annexin-V flow cytometry; type: cell-based, human; details: control ~8%
[36] = system: PC-3 cells; assay: Oxygen consumption rate; type: cell-based, human; details: PC-3, 2 mg/ml, 48h, 1 million cells/ml
[37] = system: RWPE-1 cells; assay: MTT cell survival, near-normal prostate cells; type: cell-based; details: 0.5 mg/ml, 48h, pH 7.4, RWPE-1
[38] = 40 mg/kg oral gavage, pH 5, 4 weeks
[39] = after 4 weeks of 40 mg/kg oral Etn

CYP2C9, sequence (P11712 whole entry): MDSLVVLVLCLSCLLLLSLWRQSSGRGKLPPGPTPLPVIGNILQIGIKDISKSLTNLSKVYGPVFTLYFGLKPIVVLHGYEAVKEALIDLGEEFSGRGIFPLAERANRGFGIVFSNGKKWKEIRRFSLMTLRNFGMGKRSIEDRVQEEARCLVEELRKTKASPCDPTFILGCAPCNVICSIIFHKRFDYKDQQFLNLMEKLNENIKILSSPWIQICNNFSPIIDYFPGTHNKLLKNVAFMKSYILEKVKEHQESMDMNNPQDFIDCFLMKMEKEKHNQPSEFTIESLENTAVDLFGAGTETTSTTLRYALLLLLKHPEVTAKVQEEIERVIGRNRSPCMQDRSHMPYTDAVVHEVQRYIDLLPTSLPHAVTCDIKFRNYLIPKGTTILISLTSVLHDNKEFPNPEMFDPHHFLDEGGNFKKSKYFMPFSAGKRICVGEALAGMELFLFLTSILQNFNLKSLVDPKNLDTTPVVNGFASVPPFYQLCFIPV

NCCOP(=O)(O)O [PhosE, phosphoethanolamine]
IC50 [1]: > 100 µM | volume of distribution (Vd) ([2]; intravenous PhosE 3 mg/kg): 4.82 L/kg | clearance (CL) ([2]; intravenous, Etn 2 mg/kg, PhosE 3 mg/kg): 6.1152 L/h/kg | effect on colony numbers compared to control cells [3]: ineffective | decrease in concentration in SIF ([4]; SIF pH 6.8, after 2h): ~ 35% | IC50 [5]: > 100 µM | IC50 [6]: > 100 µM | IC50 [7]: > 100 µM | IC50 [8]: > 100 µM | Cmax ([9]; after oral Etn 40 mg/kg): 0.55 µg/mL | time to reach peak plasma concentration ([9]; after oral Etn 40 mg/kg): 10 min | Cmax ([9]; after oral PhosE 60 mg/kg): 1.14 µg/mL | oral bioavailability ([9]; oral Etn 40 mg/kg, PhosE 60 mg/kg vs intravenous 2 and 3 mg/kg): 19% | inhibition of proliferation and colony formation [10]: ineffective | IC50 [11]: > 100 µM | IC50 [12]: > 100 µM | IC50 [13]: > 100 µM | increase of intracellular PhosE levels relative to control cells [14]: ~ 15 fold | stability in SGF [15]: stable | partitioning into RBCs (blood to plasma concentration ratio) [16]: lack of preferential partitioning into RBCs | IC50 [17]: > 100 µM

NCCO [Etn, monoethanolamine]
IC50 [1]: > 100 µM | decrease in colony numbers [3]: ~ 97% | stability in SIF ([4]; SIF pH 6.8, over time (0-120 min), LC-MS/MS): remained unchanged | glucose content in cells versus control [18]: significantly reduced | glutamine content in cells versus control [18]: significantly reduced | HIF1-α protein expression in treated versus control tumors [19]: downregulation | IC50 [5]: > 100 µM | acute toxicity ([20]; single oral dose 5 g/kg (limit dose), male and female rats, monitored one week): does not induce any acute toxicity | survival after one week ([20]; single oral dose 5 g/kg, five male and five female rats): all rats were alive | reduction in tumor volume [21, 38]: ~ 42% | reduction in tumor weight [21, 38]: ~ 29% | change in body weight over treatment course ([21]; 40 mg/kg oral, 4 weeks, DU145 tumor bearing mice): no apparent change in body weight | IC50, cell proliferation [22]: 550 mg/L (≈ 9 mM) | glucose content in tumors versus control [23]: significantly reduced | glutamine content in tumors versus control [23]: significantly reduced | IC50 [6]: > 100 µM | reduction of cell survival ([24]; 0.5 mg/ml, PC-3, 48h): ~ 38% | reduction in cell proliferation ([24]; 1 mg/ml Etn alone, PC-3, 48h): ~ 33% | half-maximal concentration (IC50), cell proliferation ([24]; PC-3, MTT, 48h): ~ 0.88 mg/ml | decrease in cell viability [25]: ~ 11% | IC50 ([7]; read-out: IC50 CYP1A2): > 100 µM | IC50 [8]: > 100 µM | increase in p53 transcript levels compared to controls [26]: 1.2 fold | reduction of cell survival [27]: 30–52% | decrease in tumor volume ([28]; 40 mg/kg oral gavage): ~ 44% | change in body weight over treatment course ([28]; 40 mg/kg oral, HCT116 tumor bearing mice): no apparent change in body weight | dependence of absorption on formulation pH or acid [29]: independent of pH | reduction in tumor volume ([30]; 40 mg/kg oral gavage, pH 5 (phosphoric acid), 4 weeks): ~ 67% | reduction in tumor weight [30, 38]: ~ 55% | change in body weight over treatment course ([30]; 40 mg/kg oral, 4 weeks, PC-3-luc tumor bearing mice): no apparent change in body weight | change in intratumoral Etn levels versus control mice [30, 39]: did not observe any significant change | intratumoral PhosE level, increase over control mice [30, 39]: ~ 38% | Cmax of Etn relative to Cmax of PhosE ([9]; after oral Etn 40 mg/kg): 32 fold | Cmax ([9]; after oral Etn 40 mg/kg): 17.37 µg/mL | time to reach peak plasma concentration ([9]; after oral Etn 40 mg/kg): 10 min | Cmax ([9]; after oral PhosE 60 mg/kg): 4.32 µg/mL | IC50, cell proliferation [31]: 290 mg/L (≈ 4.75 mM) | reduction in HIF1-α transcripts levels compared to control cells [32]: 50 fold | IC50, cell proliferation [33]: 1900 mg/L (≈ 31.1 mM) | IC50 [11]: > 100 µM | Ki67-positive cells in treated tumors [34]: ~ 40% | Annexin-V positive cells upon treatment [35]: ~ 25% | IC50 [12]: > 100 µM | IC50 [13]: > 100 µM | reduction of OCR compared to controls [36]: ~ 26% | increase of intracellular PhosE levels relative to control cells [14]: ~ 40 fold | stability in SGF [15]: stable | IC50 [17]: > 100 µM | effect on cell survival [37]: unaffected
